Experimental findings from patent publication US20010047018A1 (published 2001) are described below.

As a reminder, the melting point is the temperature, or range, at which the solid turns liquid.

Structures are written as SMILES.

`CC(=O)NC[C@H]1CN(c2ccc3c(c2)CS(=O)(=O)N3C)C(=O)O1`: the melting point fell in the range of 84 to 86 °C.
To `CC(=O)NC[C@H]1CN(c2ccc3c(c2)CS(=O)(=O)N3CCF)C(=O)O1` belongs 84 to 87 °C (dec.); to `CC(=O)NC[C@H]1CN(c2ccc3c(c2)CS(=O)(=O)N3CC#N)C(=O)O1`, 124 to 126 °C (dec.); to `CC(=S)NC[C@H]1CN(c2ccc3c(c2)CS(=O)(=O)N3CCF)C(=O)O1`, 90 to 93 °C (dec.).
